{
  "source": "patent US20090176741A1",
  "about": "“MODULATION OF THE IMMUNE SYSTEM BY INOSITOL PHOSPHOLIPIDS” (priority 2006, published 2009)",
  "key": {"[1]": {"test_system": "DN32 cells (NKT cell line) co-cultured with CD1d transfected T84D cells", "assay": "CD1d-restricted NKT cell activation (T84D/DN32 co-culture, IL-2 ELISA)", "assay_type": "cell-based, murine", "conditions": "for CD1d dependent NKT cell activation (IL-2 present in the supernatants): solvent control, PI or myo-inositol, FIG. 2", "description": "(§1) A CD1d transfected epithelial cell line T84D was pulsed with alpha-GalactosylCeramide and co-cultured with PI at different concentrations. NKT cell activation was determined by measurement of IL-2 present in the supernatants. FIG. 2: Phosphatidyl-inositol but not myo-inositol blocks CD1d dependent NKT cell activation. A CD1d transfected epithelial cell line T84D was pulsed with a GalactosylCeramide and co-cultured with either solvent control, PI or myo-inositol. NKT cell activation was determined by measurement of IL-2 present in the supernatants. FIG. 3: Differential effect of PI and PS on cellular viability and immune suppression. T cells were suspended at 10^6 cells/ml in 24-wells plates (1 ml suspension per well). Cells were either left untreated (PMA 0 Cal 0) or activated with 5 ng/ml PMA +0.1 μg/ml calcium ionophore A23187 (PMA 5 ng/ml Cal 0.1 ug/ml) in the presence of PI or PS at the indicated concentrations (expressed in pg/ml). Panel A: Following a 24 hour incubation period in the presence of the indicated lipids and stimuli cellular viability was measured using flow cytometric detection of 7-AAD stained cells. […] FIG. 4: IPL strongly affects early survival in oxazolone colitis model. For experimental details see Example 2A. FIG. 5: Suppression of IL-2 production by intestinal T cells upon IPL intrarectal treatment of oxazolone-colitis mice. Mice were treated with saline (group A) or PI (group B) twenty minutes prior to challenge with oxazolone to induce colitis. Mice were sacrificed and intestinal T cells were analyzed for IL-2 production upon stimulation by aCD3/aCD28 during a period of 48 hours (panel A) or 72 hours (panel B). […] C Histopathology of the whole colon was assessed by blindly scoring each separate field of view at a 4× magnification by means of a TNBS score. […]\nOn day 0, T84D cells (a human epithelial cell line transfected with CD1d) were incubated overnight with a GalCer (10 mg/ml). […] Supernatants were collected and IL-2 cytokine production by DN32 (reflecting T cell activation) was determined by means of ELISA."}, "[2]": {"test_system": "T cells", "assay": "Cellular viability of T cells (flow cytometric 7-AAD detection)", "assay_type": "cell-based", "conditions": "FIG. 3A", "description": "as §1, with “B). ALN=axillair LN; MLN=mediastinal LN; ILN=iliacal LN. For further details see Example 2A. FIG. 6: Treatment with IPL (non-liposomal aerosol) prevents the typical histo-pathological changes that are associated with an asthma mouse model. For experimental details see Example 2B.” for “B).”"}, "[3]": {"test_system": "T cells", "assay": "T cell activation measured by IL-2 cytokine production", "assay_type": "cell-based", "conditions": "for T cell activation measured by IL-2 cytokine production: PMA + calcium ionophore A23187", "description": "as §1, with “B). ALN=axillair LN; MLN=[…] LN; ILN=iliacal LN. For further details see Example 2A. FIG. 6: Treatment with IPL (non-liposomal aerosol) prevents the typical histo-pathological changes that are associated with an asthma mouse model. For experimental details see Example 2B. FIG. 7: Treatment with PI (aerosol) prevents the eosinophilia that is associated with an asthma mouse model. For experimental details see Example 2B. FIG. 8: effects of intraperitoneal injection of PI in the TNBS colitis model. […] B The percentage of weight during TNBS colitis is shown. Each dot represents the mean of weights of each group per 0.5 day. Error bars indicate the standard error of the mean. Asterisks indicate significant differences (p<0.05) between TNBS treated mice that received i.p. injections of PI and saline.” for “B).”"}, "[4]": {"test_system": "oxazolone colitis", "assay": "Oxazolone colitis model, intra-rectal PI", "assay_type": "in vivo, mice", "description": "On day 0 male wild type black/6 mice (Charles Rivers) of 7-10 weeks old were sensitized epicutaneously with 150 μl 3% 4-ethoxymeyhylene-2-phenyl-oxazolin-5-one (oxazolone; Sigma) in 100% ethanol. At day 5, mice were challenged, under anesthesia of ketamine (80 mg/kg) and xylazine (10 mg/kg), by rectal administration of 100 μl 2% oxazolone in aqueous ethanol (50%). Twenty minutes prior to challenge mice were treated intra-rectally with 100 μl saline (control) or PI (2 mg/ml). All […] groups contained 8 mice. Mice were weighted at day 5, 6, 7, and 8 and were sacrificed at day 8.\nColonic tissue was fixed with 4% natural buffered formalin solution, embedded in paraffin, cut into 5μ tissue sections, and stained with hematoxylin and eosin (H&E). Using a score that has been described previously for oxazolone colitis (REF), the stained sections were examined for evidence of colitis. Spleen, axillary lymph nodes (ALN), mesenteric lymph nodes (MLN) and iliacal lymph nodes (ILN) were isolated and stimulated ex-vivo with either PBS (control) or with aCD3/aCD28 (100 μl of 2 μg/ml each) in IMDM medium. After 48 and 72 hours, the production of IL-2 was measured by means of ELISA (Beckton & Dickinson)."}, "[5]": {"test_system": "OVA-induced asthma", "assay": "OVA asthma model, intra-tracheal PI", "assay_type": "in vivo, mice", "conditions": "PI intra-tracheally before OVA aerosol challenge", "description": "On days one and eight male wildtype Balb/c mice (Charles Rivers) of 7-10 weeks old were sensitized by intra-peritoneal (i.p.) injection of 20 μg of OVA (Sigma), emulsified in 2.25 mg of alum (AlumImuject; Pierce). On days 15, 16 and 17 mice were sedated and received 80 μl of one of three solutions of PI (0 μg/ml, 200 μg/ml or 2 mg/ml) intra-tracheally (i.t). Subsequently the mice were challenged by 20 minutes of inhalation exposure to 60 μl of aerosols containing OVA (1% in saline). All three groups contained 8 mice. Mice were sacrificed at day 18.\nLungs were flushed with 3 ml saline and the cells in this Broncho Alveolar Lavage (BAL) were identified and quantified through FACS analysis. Subsequently the lungs were freeze-fixed, cut into 5 μm tissue sections and stained with May-Grunwald-Giemsa (MGG). The stained sections were examined for the presence of inflammatory cell infiltration such as eosinophils."}, "[6]": {"test_system": "TNBS colitis", "assay": "TNBS colitis model, intraperitoneal PI", "assay_type": "in vivo, mice", "description": "Colitis was induced as described previously (Scheiffele, F. and Fuss, I J., 2001, Curr. Protocols Immunol. 15.19.1-15.19.14). In short, on day-7 SJL mice were sensitized epicutaneously with 150 μl 2.5% 2,4,6-trinitrobenzene sulfonic acid (TNBS; Sigma) in 50% ethanol. On day 0, mice were challenged, under anesthesia of isoflurane gas, by rectal administration of 150 μl 2.5% TNBS in 50% ethanol. Negative control mice were challenged with 50% ethanol only. […] Positive (TNBS treated) and negative (ethanol treated) control mice were treated with an intraperitoneal (i.p.) injection of 150 μl of saline at 0, 12, 24, 36, 48 and 60 h. The PI treatment group was treated with […] of 5 mg/ml PI suspended in saline at the same time points. Mice were weighted at 0, 12, 24, 36, 48 and 60 h and were sacrificed at 60 h. Colonic tissue was folded into Swiss rolls, fixed in 4% natural buffered formalin solution and embedded in paraffin. Sections of 5 μm thickness were generated, stained with hematoxylin (Vector Laboratories) and eosin (Sigma) and analyzed by microscopy. Histology was quantified by scoring each separate field of view at a 4× magnification from distal to proximal by means of a previously described TNBS scoring system (Scheiffele, F. and Fuss, I J., 2001, Curr. Protocols Immunol. 15.19.1-15.19.14). Single cell suspensions were made of iliac lymph nodes (ILNs) and mesenteric lymph nodes (MLNs) by sieving trough an 80 μm filter and subsequently lymphocytes were cultured and stimulated with 2 μg/ml anti-CD3 and 2 μg/ml anti-CD28 antibodies. After 48 h of culture the supernatant was collected and release of the pro-inflammatory cytokines IFN-γ and IL-17 (Zhang, Z. et al., 2006, Inflamm. Bowel Dis., 12:382-388) and the anti-inflammatory cytokine IL-10 were measured by means of ELISA (IL-17) or CBA (IFN-γ and IL-10)."}, "[7]": {"assay": "Observation after intravenous PI", "assay_type": "in vivo, mice", "conditions": "200 μl of PI 2 mg/ml (400 μg) intravenously, 3 hour observation period", "description": "It will be recognized by those skilled in the art that the optimal quantity and spacing of individual dosages for achieving the therapeutic effects of the pharmaceutical composition, food item or food supplement described herein may easily be determined by the skilled person. They will be determined by the nature and extent of the condition being treated, as well as by the form, route and site of administration, and the particular individual undergoing treatment, and that such optima can be determined by conventional techniques. Typically, the treatment will involve the administration of inositol phospholipid in amount of approximately 0.001 to 1 gram , preferably 0.005 to 0.5 gram, more preferably 0.01 to 0.1 gram per kilogram of body weight per 24 hours. It will also be appreciated by those skilled in the art that the optimal dosage regimen, i.e. the number of doses, can be ascertained using conventional course of treatment determination tests well known in the art. […] Generally speaking, a therapeutic dosing regimen will involve the administration of the selected dosage formulation comprising an inositol phospholipid, e.g. a PI aerosol spray, at least once daily, preferably one to four times daily, until the symptoms have subsided. Or given in times of remission, in order to prevent a disease flare-up (exacerbation). […]"}, "[8]": {"test_system": "activated peripheral blood cells", "conditions": "Caselli et al. 1992; cited from earlier work"}, "[9]": {"conditions": "24 hour incubation, untreated or 5 ng/ml PMA + 0.1 μg/ml A23187"}, "[10]": {"conditions": "anti-CD3/anti-CD28 re-stimulation, 48 h, vs saline treated group, p<0.05, FIG. 8D"}},
  "data": [
    {"compound": "O[C@H]1[C@H](O)[C@@H](O)[C@H](O)[C@@H](O)[C@H]1O", "note": "[myo-inositol, reference compound]", "values": [
      {"measurement": "CD1d dependent NKT cell activation (IL-2 present in the supernatants)", "setting": "[1]", "result": "no significant suppressive effect"}
    ]},
    {"compound": "phosphatidyl inositol [PI]", "values": [
      {"measurement": "NKT cell activation (IL-2 present in the supernatants)", "setting": "[1]; T84D pulsed with alpha-GalactosylCeramide, PI at different concentrations, FIG. 1", "result": "Dose-dependent inhibition"},
      {"measurement": "CD1d dependent NKT cell activation (IL-2 present in the supernatants)", "setting": "[1]", "result": "blocks"},
      {"measurement": "cellular viability", "setting": "[2]; [9]", "result": "does not significantly affect cellular viability"},
      {"measurement": "cellular viability", "setting": "[2]; up to the highest dose tested (100 μg/ml)", "result": "does not affect cellular viability"},
      {"measurement": "T cell activation measured by IL-2 cytokine production", "setting": "[3]; FIG. 3B", "result": "inhibitory effect"},
      {"measurement": "reversibility of the suppressive effect", "setting": "[3]; data not shown", "result": "reversible"},
      {"measurement": "T cell activation", "setting": "[3]; phorbol ester and calcium ionophore, or stimulation of CD3 and CD28, FIG. 3B", "result": "directly inhibit"},
      {"measurement": "weight loss", "setting": "[4]; 100 μl PI 2 mg/ml intra-rectally 20 min prior to oxazolone challenge", "result": "diminished weight loss"},
      {"measurement": "survival", "setting": "[4]; 100 μl PI 2 mg/ml intra-rectally 20 min prior to oxazolone challenge, FIG. 4", "result": "increased survival"},
      {"measurement": "IL-2 production upon ex-vivo stimulation of intestinal T cells", "setting": "[4]; aCD3/aCD28 stimulation, 48 and 72 hours, FIG. 5", "result": "suppressed"},
      {"measurement": "histopathological changes of the lungs", "setting": "[5]; FIG. 6", "result": "reduces"},
      {"measurement": "influx of eosinophils (BAL)", "setting": "[5]; FIG. 7", "result": "strongly inhibits"},
      {"measurement": "general appearance (fur, behavior)", "setting": "[6]; PI 5 mg/ml i.p. every 12 h vs saline, FIG. 8A", "result": "appeared less diseased"},
      {"measurement": "weight loss", "setting": "[6]; PI i.p. vs control saline treatment, FIG. 8B", "result": "dramatic reduction in weight loss"},
      {"measurement": "start of weight recovery", "setting": "[6]; PI i.p., saline treated mice did not re-gain weight, FIG. 8B", "result": 1.5, "unit": "days"},
      {"measurement": "IL-10 production", "setting": "[6]; anti-CD3/anti-CD28 re-stimulation, 48 h, vs saline treated group, FIG. 8D", "result": "no difference"},
      {"measurement": "IFN-γ production by MLNs", "setting": "[6]; [10]", "result": "significantly less production"},
      {"measurement": "IL-17 production by ILNs and MLNs", "setting": "[6]; [10]", "result": "significantly less production"},
      {"measurement": "colon histology (TNBS score)", "setting": "[6]; day 3, field of view number 5, FIG. 8C", "result": "near normal histology"},
      {"measurement": "symptoms or adverse signs", "setting": "[7]", "result": "did not show any symptoms or adverse signs"},
      {"measurement": "DNA synthesis in activated peripheral blood cells", "setting": "[8]", "result": "only partially effective"}
    ]},
    {"compound": "phosphatidyl serine [PS, reference compound]", "values": [
      {"measurement": "cellular viability", "setting": "[2]; [9]", "result": "toxic for activated cells in a dose-dependent manner"},
      {"measurement": "T cell activation measured by IL-2 cytokine production", "setting": "[3]; FIG. 3B", "result": "stimulatory effect"},
      {"measurement": "DNA synthesis in activated peripheral blood cells", "setting": "[8]", "result": "inhibition"}
    ]}
  ]
}
